These results are taken from ChEMBL document CHEMBL1201862, “PubChem BioAssay data set” (2004).

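Five concentrations, 48 hours, 96-well plates. Abbreviation: GI50, concentration required for 50% inhibition of growth.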 Active and inactive are the calls of the source. Rule as the data show it: active = GI50 up to about 1.1 µM and inactive = higher.

Test systems include 786-0; A498; CCRF-CEM; DU-145; HCT-116; HT-29; Hs-578T; IGROV-1; K562; MCF7; MDA-MB-231; NCI-H460; OVCAR-3; OVCAR-5; PC-3; SF-268; SNB-75; UACC-62; SF-539; T47D.
What all share (assay): NCI-60 cell line screen, 48 h

Consider `N/C(=N\c1ccccc1)c1ccccc1N`, for which the GI50 with 786-0 was > 100 µM (inactive); with A498, > 100 µM (inactive); in the assay on CCRF-CEM, 40.6 µM (inactive); in the assay with DU-145, > 100 µM (inactive); in the assay on HCT-116, > 100 µM (inactive); with HT-29, > 100 µM (inactive). For the same compound, the GI50 with Hs-578T, in the assay with IGROV-1, in the assay on K562, in the assay on MCF7, with MDA-MB-231 and with NCI-H460 was > 100 µM (inactive) in each case. Besides, the GI50 is > 100 µM (inactive) in the assay on OVCAR-3; > 100 µM (inactive) with OVCAR-5; > 100 µM (inactive) in the assay on PC-3; > 100 µM (inactive) in the assay with SF-268; 80.2 µM (inactive) in the assay on SNB-75; > 100 µM (inactive) in the assay on UACC-62.

Consider `CCOC(=O)/C(C[C@H]1OC(C)(C)O[C@@H]1[C@H]1COC(C)(C)O1)=N/O`, for which the GI50 with 786-0, with A498, in the assay on CCRF-CEM, in the assay with DU-145, with HCT-116 and in the assay on HT-29 was > 100 µM (inactive) in each case. Besides, the GI50 in the assay with Hs-578T, in the assay with IGROV-1, in the assay with K562, with MCF7, in the assay with MDA-MB-231 and in the assay with NCI-H460 was > 100 µM (inactive) each time. The GI50 in the assay on OVCAR-3, in the assay with OVCAR-5, in the assay with PC-3, in the assay with SF-268, in the assay on SF-539 and in the assay with UACC-62 was > 100 µM (inactive) throughout.

Take `Cc1ccc([N+](=O)[O-])cc1S(=O)(=O)Nc1ccc(C2=NN(S(=O)(=O)c3cc([N+](=O)[O-])ccc3C)C(c3ccccc3O)C2)cc1` (centres undefined): the GI50 with 786-0 is 30.8 µM (inactive); in the assay with A498, 10.4 µM (inactive); in the assay on CCRF-CEM, > 100 µM (inactive); in the assay with DU-145 it was > 100 µM (inactive); with HCT-116, > 100 µM (inactive); with HT-29, > 100 µM (inactive). Further, the GI50 with IGROV-1 is 98.9 µM (inactive); with K562 it was 31.6 µM (inactive); in the assay on MCF7 it was > 100 µM (inactive); with MDA-MB-231, 44.6 µM (inactive); in the assay with NCI-H460, > 100 µM (inactive); with OVCAR-3 it was 67.3 µM (inactive). Moreover, the GI50 in the assay with OVCAR-5 was > 100 µM (inactive); in the assay with PC-3, > 100 µM (inactive); in the assay with SF-268, 26.5 µM (inactive); with SNB-75, 31.1 µM (inactive); in the assay on T47D it was > 100 µM (inactive); in the assay on UACC-62, 58.5 µM (inactive).

As to `CN(C)C(=O)C(F)(F)C(c1ccccc1)C1C(=O)N(C)C(=O)N(C)C1=O` (centres undefined), the GI50 with 786-0, in the assay with A498, in the assay on CCRF-CEM, in the assay on DU-145, in the assay with HCT-116 and in the assay on K562 was > 100 µM (inactive) each time. Further, the GI50 in the assay on MCF7, in the assay with MDA-MB-231, in the assay with NCI-H460, with OVCAR-3, with OVCAR-5 and in the assay with PC-3 was > 100 µM (inactive) each time. Besides, the GI50 in the assay with SF-268, with SNB-75, in the assay on T47D and in the assay on UACC-62 was > 100 µM (inactive) throughout.

Consider `C=CC1(CCC(Br)C(C)(C)Cl)CO1` (centres undefined), for which the GI50 in the assay on 786-0, with A498, with CCRF-CEM, in the assay on DU-145, in the assay with HCT-116 and in the assay on HT-29 was > 10 µM (inactive) in each case. Further, the GI50 in the assay on IGROV-1, in the assay on K562, in the assay with MCF7, in the assay on MDA-MB-231, in the assay with NCI-H460 and with OVCAR-3 was > 10 µM (inactive) each time. The GI50 with OVCAR-5, in the assay with PC-3, in the assay with SF-268, in the assay with SF-539, with SNB-75 and with T47D was > 10 µM (inactive) throughout.

In the case of `CN1C(=O)C2(C=CC(O)CC2)c2ccccc21` (centres undefined), the GI50 in the assay with 786-0, in the assay with A498, in the assay on CCRF-CEM, in the assay on DU-145, in the assay with HCT-116 and with HT-29 was > 100 µM (inactive) each time. For the same compound, the GI50 with IGROV-1, with K562, in the assay with MCF7, in the assay on MDA-MB-231, in the assay on NCI-H460 and in the assay on OVCAR-3 was > 100 µM (inactive) each time. The GI50 in the assay with OVCAR-5, in the assay on PC-3, in the assay on SF-268, in the assay with SNB-75, with T47D and with UACC-62 was > 100 µM (inactive) in each case.

In the case of `CCOC(=O)/C1=C(\C)N(Cc2ccccc2)C(=O)c2ccccc2C(=O)c2c(OC(C)=O)ccc(OC(C)=O)c21`, the GI50 is > 100 µM (inactive) in the assay with 786-0; > 100 µM (inactive) in the assay on A498; 40.8 µM (inactive) in the assay on CCRF-CEM; 40.2 µM (inactive) in the assay with HT-29; 33.5 µM (inactive) with Hs-578T; 21.9 µM (inactive) in the assay with IGROV-1. Also, the GI50 was 42.9 µM (inactive) in the assay on K562; 21.1 µM (inactive) in the assay on MCF7; > 100 µM (inactive) with MDA-MB-231; 39.4 µM (inactive) in the assay on NCI-H460; 23.1 µM (inactive) with OVCAR-3; 41.7 µM (inactive) in the assay on OVCAR-5. Further, the GI50 with SF-268 was 43.6 µM (inactive); with SF-539, > 100 µM (inactive); with SNB-75, > 100 µM (inactive); with T47D it was > 100 µM (inactive); in the assay with UACC-62 it was 53.2 µM (inactive).

Take `O=C1CC(Cc2n[nH]c3c2CCCC3)CC(=O)N1`: the GI50 was > 100 µM (inactive) in the assay on 786-0; > 100 µM (inactive) in the assay on A498; 37.1 µM (inactive) in the assay with CCRF-CEM; > 100 µM (inactive) with DU-145; > 100 µM (inactive) with HCT-116; > 100 µM (inactive) in the assay on HT-29. The GI50 in the assay with IGROV-1, in the assay with K562, in the assay on MCF7, in the assay on MDA-MB-231, in the assay with OVCAR-3 and in the assay on OVCAR-5 was > 100 µM (inactive) in each case. Moreover, the GI50 in the assay with PC-3, in the assay with SF-268, with SF-539, with SNB-75, with T47D and in the assay on UACC-62 was > 100 µM (inactive) each time.

On to `O=C(NC1CCC(=O)N1C(=O)OCc1ccccc1)OCc1ccccc1` (centres undefined), for which the GI50 in the assay with 786-0, with DU-145, with HT-29, with Hs-578T, with IGROV-1 and with K562 was > 100 µM (inactive) each time. The GI50 with MCF7, in the assay on MDA-MB-231, in the assay on NCI-H460, in the assay with OVCAR-3, in the assay with OVCAR-5 and in the assay with PC-3 was > 100 µM (inactive) in each case. Also, the GI50 in the assay on SF-268 was > 100 µM (inactive); in the assay on SF-539, > 100 µM (inactive); in the assay on SNB-75 it was 77.6 µM (inactive); with UACC-62 it was > 100 µM (inactive).

As for `NC(CSC(c1ccccc1)(c1ccccc1)c1ccccc1)C(=O)O` (centres undefined), the GI50 with 786-0 is 0.971 µM (active); with A498 it was 1.51 µM (inactive); in the assay on CCRF-CEM, 0.583 µM (active); in the assay with HCT-116 it was 0.615 µM (active); with HT-29, 2.94 µM (inactive); with Hs-578T, 1.61 µM (inactive). Further, the GI50 in the assay with IGROV-1 is 2.12 µM (inactive); in the assay on K562, 0.509 µM (active); with MDA-MB-231, 1.42 µM (inactive); in the assay with NCI-H460, 0.658 µM (active); in the assay with OVCAR-3 it was 1.7 µM (inactive); in the assay with OVCAR-5, 15.4 µM (inactive). The GI50 in the assay with PC-3 was 1.61 µM (inactive); in the assay with SF-268 it was 1.27 µM (inactive); in the assay with SF-539 it was 0.396 µM (active); in the assay with SNB-75, 1.74 µM (inactive); with T47D it was 0.684 µM (active); in the assay on UACC-62, 0.685 µM (active).

As for `O=C1/C(=C\c2ccccc2)c2ccccc2N1/N=C\c1ccccc1`, the GI50 was 81.5 µM (inactive) in the assay on 786-0; > 100 µM (inactive) with A498; 49.2 µM (inactive) with CCRF-CEM; 77.4 µM (inactive) in the assay with HCT-116; 25.1 µM (inactive) in the assay with HT-29; > 100 µM (inactive) with IGROV-1. The GI50 in the assay on K562 is 42.7 µM (inactive); in the assay with NCI-H460 it was > 100 µM (inactive); with OVCAR-3 it was 91.8 µM (inactive); in the assay on OVCAR-5, > 100 µM (inactive); in the assay on SF-268 it was > 100 µM (inactive); in the assay on SF-539, > 100 µM (inactive). The GI50 was 29 µM (inactive) in the assay on SNB-75 and 90.4 µM (inactive) with UACC-62.
